Measured values: patent EP1123387B1, “MN GENE AND PROTEIN” (INSTITUTE OF VIROLOGY, priority 1998, dated 2000)
Like-named read-outs stand apart in the source and are kept apart here. Where a SMILES comes first, the peptide text is derived from it.

Legend:
[1] = system: Rat2TK- cells and C33 human cervical carcinoma cells transfected with pMN-HSVtk
[2] = target: T1, epitope of immobilized GST-MN (Homo sapiens, UniProt Q16790); assay: Competition ELISA (peptides binding to the epitope of immobilized GST-MN); conditions: nonapeptides of 7 + 2 aa
T1 construct: expressed from pGEX-3X-MN containing the cDNA for the MN protein without the signal peptide; made in house; host or cells: bacteria (E. coli XL1-Blue)
Procedure: (§1) ELISA. Purified GST-MN [Zavada et al. (1993), supra] at concentration 10 ng /ml in carbonate buffer pH 9.2 was adsorbed for 3 h in Maxisorb strips (NUNC). After washing and blocking (1 h) with 0.05% Tween 20 in PBS, 50µl/well of the antibody + antigen mixtures were added. […] These mixtures were adsorbed for 1.5 h, followed by washing with Tween-PBS. Bound antibody was detected by antimouse lgG conjugate with peroxidase (SwAM-Px, SEVAC, Prague), diluted 1:1000. In the color reaction OPD (o-phenylenediamine dihydrochloride, Sigma) 1 mg/ml in 0.1 M citrate buffer pH 5.0 was used. To this H2O2 was added to final concentration 0.03%. This system is balanced so as to allow assay for antigen competing for M75 as well as for peptides binding to the epitope of immobilized GST-MN.
MN/CA IX. As an alternative to monoclonal antibodies, we set out to select oligopeptides exerting affinity to M75 epitope as well as to MN/CA IX receptor binding site from a phage display library of random heptapeptides - Ph.D.-7. Our aim was to select phages containing the desired heptapeptides by panning on immobilized peptide SEQ ID NO: 106 and subsequent elution with M75. Eluted phage was multiplied in appropriate bacteria and subjected to 4 more cycles of panning and elution. From the selected phage population, 10 plaques were picked, amplified and the heptapeptide-coding region was sequenced. Only 3 heptapeptides were represented. Those three heptapeptides, after adding alanine on both sides, are the following nonapeptides: […] [SEQ ID NO: 137]; […] [SEQ ID NO: 138]; and […] [SEQ ID NO: 139]. The last heptapeptide, synthesized again with added terminal alanines as nonapeptide […] [SEQ ID NO: 140], was identified by panning on GST-MN and eluted with acetazolamide. This last peptide has affinity to the active site of MN/CA IX carbonic anhydrase. We synthesized these peptides of 7 + 2 aa and tested them in competition ELISA and in cell adhesion inhibition. […] In all of those 4 nonapeptides, the C-terminal […] as amide.

MN/CA IX = MN/CA IX (Homo sapiens, UniProt Q16790); assay: Cell adhesion assay of Example 2 (inhibition of cell attachment to MN/CA IX dots); assay type: cell-based; conditions: nonapeptides of 7 + 2 aa
[3] = system: NIH3T3 cells freshly transformed with the [pGD.MN + MLV] complex; assay: Effect on morphologic transformation by MN; assay type: cell-based, mouse; conditions: 10^-5M, 4 days of incubation
Procedure: Thus, 10^-5M acetazolamide was added to NIH3T3 cells freshly transformed with the [pGD.MN + MLV] complex. After 4 days of incubation, the colonies were fixed and stained. No difference was seen between cells growing in the presence or absence of acetazolamide; both were indistinguishable from correctly transformed NIH3T3 cells. Thus, the enzymatic activity of carbonic anhydrase is not relevant for the transforming activity of MN protein.

[4] = Tolerance of cell cultures to acetazolamide; assay type: cell-based, human; conditions: human, hela cells; confluent cultures, 3 days; read-out: concentration tolerated without any signs of toxicity and without any effect on cell morphology
HeLa = assay: Tolerance of cell cultures to acetazolamide; assay type: cell-based, human; conditions: sparse cultures
[5] = Tolerance of cell cultures to acetazolamide; assay type: cell-based, mouse; conditions: mouse, nih3t3 cells; confluent cultures, 3 days; read-out: concentration tolerated without any signs of toxicity and without any effect on cell morphology
NIH3T3 cells = assay: Tolerance of cell cultures to acetazolamide; assay type: cell-based, mouse; conditions: sparse cultures
MAb M75 = assay: Competition ELISA with M75 (antigen competing for M75); assay type: binding, mouse; conditions: for concentration causing 50% inhibition: GST-MN adsorbed, MAb 75 ascites fluid 10^-6; for reactive with the M75 MAb: test not given
Procedure: as §1
Identification of the epitope recognized by Mab M75. Preliminary mapping of M75 epitope employing partial sequences of extracellular parts of MN/CA9 cDNA expressed from bacterial vectors and tested on Western blots located it in PG region. For exact mapping, our strategy was to synthesize partially overlapping oligopeptides of 15-25 aa covering the PG domain and test them in competition ELISA with M75. According to the results, this was followed by a series of 6-12 aa oligopeptides. A major part of the PG domain consists of a 6-fold tandem repeat of 6 aa (aa 61 - 96) [SEQ ID NO: 97]; 4 repeats are identical (GEEDLP) [SEQ ID NO: 98] and 2 contain 2 aa exchanged (SEEDSP [SEQ ID NO: 141] and REEDPP [SEQ ID NO: 142]).

In the case of `Nc1nc(O)c2ncn(COC(CO)CO)c2n1` [GVC, ganciclovir], the cells killed [1] is reported as “up to 95%”.
In the case of `CSCC[C@H](NC(=O)[C@H](CCCCN)NC(=O)[C@H](CCCCN)NC(=O)[C@H](C)N)C(=O)N[C@@H](CCCCN)C(=O)N[C@@H](CCCNC(=N)N)C(=O)N[C@@H](CCCNC(=N)N)C(=O)N[C@@H](CCCCN)C(=O)N[C@@H](C)C(N)=O` [SEQ ID NO: 137] (H-AKKMKRRKA-NH2), the “activity in competition ELISA” value [2] is reported as “less active” and the “activity in cell adhesion inhibition” value (MN/CA IX) is reported as “less active”.
For `CC[C@H](C)[C@H](NC(=O)[C@H](C)N)C(=O)N[C@H](C(=O)N[C@@H](Cc1ccccc1)C(=O)N[C@@H](CC(N)=O)C(=O)N[C@@H](C)C(=O)N[C@@H](CCC(N)=O)C(=O)N[C@@H](Cc1ccc(O)cc1)C(=O)N[C@@H](C)C(N)=O)[C@@H](C)O` [SEQ ID NO: 138] (H-AITFNAQYA-NH2), the “activity in competition ELISA” value [2] was “highest activity” and the “activity in cell adhesion inhibition” value (MN/CA IX) was “highest activity”.
In the case of `CC(C)[C@H](NC(=O)[C@@H]1CCCN1C(=O)[C@H](C)NC(=O)[C@H](CO)NC(=O)[C@H](C)NC(=O)[C@H](CO)NC(=O)[C@H](C)N)C(=O)N[C@@H](CO)C(=O)N[C@@H](C)C(N)=O` [SEQ ID NO: 139] (H-ASASAPVSA-NH2), the “activity in competition ELISA” value [2] is reported as “marginally positive” and the “activity in cell adhesion inhibition” value (MN/CA IX) is reported as “marginally positive only in ELISA”.
In the case of `CC(C)C[C@H](NC(=O)[C@@H]1CCCN1C(=O)[C@H](CO)NC(=O)[C@H](CCCNC(=N)N)NC(=O)[C@@H](NC(=O)[C@H](CCC(N)=O)NC(=O)CNC(=O)[C@H](C)N)[C@@H](C)O)C(=O)N[C@@H](C)C(N)=O` [SEQ ID NO: 140] (H-AGQTRSPLA-NH2), the “activity in competition ELISA” value [2] is reported as “inactive” and the “activity in cell adhesion inhibition” value (MN/CA IX) is reported as “inactive”.
For `CC(=O)Nc1nnc(S(N)(=O)=O)s1` [acetazolamide], the “difference between transformed cells growing in the presence or absence of the drug” value [3] was “No difference”, the MNTC at 72 h [4] was 10 to 1000 µM and the cell growth (HeLa; 10^-4M) was “partial inhibition”. For the same molecule, the cell growth (HeLa; 10^-5M) was “did not inhibit cell growth”, the MNTC at 72 h [5] was 10 to 1000 µM and the cell growth (NIH3T3 cells; 10^-4M) was “partial inhibition”. For the same molecule, the cell growth (NIH3T3 cells; 10^-5M) was “did not inhibit cell growth”.
In the case of “EDPPGEEDLPGEEDLPGEEDLPEVC [SEQ ID NO: 106]”, the “concentration causing 50% inhibition” value (MAb M75; competition ELISA) is reported as 1 ng/mL and the “reactive with the M75 MAb” value (MAb M75) is reported as “reactive”.
With “GEEDLPSEEDSPREEDPPGEEDLPGEC [SEQ ID NO: 105]” the “fold less active (than SEQ ID NOS: 104 and 106)” value (MAb M75; competition ELISA) was 1000 x and the “reactive with the M75 MAb” value (MAb M75) was “reactive”.
With “GGSSGEDDPLGEEDLPSEEDSPC [SEQ ID NO: 104]” the “concentration causing 50% inhibition” value (MAb M75; competition ELISA) was 1 ng/mL and the “reactive with the M75 MAb” value (MAb M75) was “reactive”.
